Reference: patent US20110086767A1, “MUTANTS OF GLYCOSIDE HYDROLASES AND USES THEREOF FOR SYNTHESIZING COMPLEX OLIGOSACCHARIDES AND DISACCHARIDE INTERMEDIATES” (Institut Pasteur, priority 2008, published 2011)

Key:
[1] = test system: OC[C@H]1O[C@@](CO)(O[C@H]2O[C@H](CO)[C@@H](O)[C@H](O)[C@H]2O)[C@@H](O)[C@@H]1O; experiment: Kinetic parameters towards sucrose donor, double mutant A289P-F290I; type: biochemical, Neisseria polysaccharea; settings: other: sucrose donor (0-500 mM), Eadie-Hofstee plot, 30° C., pH 7.0
Method: (§1) The double mutants A289P-F290C, A289P-F290I and A289P-F290L were produced and purified, as previously described in Example 1-1. The protein content was determined by the Nanodrop ND-1000 spectrophotometer. These mutants were tested on sucrose alone or supplemented with α-D-GlcpNAc-OAll acceptor, and compared to wtAS and F290K. Assays were performed at 30° C. in 50 mM Tris-HCl buffer, pH=7.0.
(§2) Enzyme assays were carried out in a total volume of 2 mL containing pure enzyme (0.073 mg, 0.153 mg and 0.092 mg when using A289P-F290C, A289P-F2901 and A289P-F290L, respectively).
(§3) Kinetic studies of AS variants were performed in the presence of sucrose (0-500 mM). At regular time intervals (2-5 min), aliquots (200 μL) were removed, heated (95° C., 2 min) and centrifuged (18000 g, 5 min) All the samples were filtered on a 0.22 μm membrane and analyzed using HPLC material previously described. The initial rate of sucrose consumed, corresponding to the initial rate of fructose released, was expressed in mole of fructose released per minute and per gram of enzyme. The kinetic parameters kcat and Km were calculated using Eadie-Hofstee plot.

[2] = molecular target: Neisseria polysaccharea amylosucrase 1G5A (parent SEQ ID NO: 13) variant A289P-F290L (Neisseria polysaccharea, UniProt Q9ZEU2, A297P/F298L/G545D); experiment: Kinetic parameters towards sucrose donor, double mutant A289P-F290L; type: biochemical; settings: sucrose donor (0-500 mM); Eadie-Hofstee plot; 30° C., pH 7.0
Method: as §1, §2, §3

[3] = molecular target: Neisseria polysaccharea amylosucrase 1G5A (parent SEQ ID NO: 13) variant A289P-F290I (Neisseria polysaccharea, UniProt Q9ZEU2, A297P/F298I/G545D); experiment: Kinetic parameters towards sucrose donor, double mutant A289P-F290I; type: biochemical; settings: sucrose donor (0-500 mM); Eadie-Hofstee plot; 30° C., pH 7.0
Method: as §1, §2, §3

[4] = molecular target: Neisseria polysaccharea amylosucrase 1G5A (parent SEQ ID NO: 13) variant A289P-F290C (Neisseria polysaccharea, UniProt Q9ZEU2, A297P/F298C/G545D); experiment: Kinetic parameters towards sucrose donor, double mutant A289P-F290C; type: biochemical; settings: sucrose donor (0-500 mM); Eadie-Hofstee plot; 30° C., pH 7.0
Method: as §1, §2, §3

[5] = molecular target: Neisseria polysaccharea amylosucrase 1G5A (parent SEQ ID NO: 13) variant F290K (Neisseria polysaccharea, UniProt Q9ZEU2, F298K/G545D); experiment: Kinetic parameters towards sucrose donor, variant F290K; type: biochemical; settings: F290K could not be saturated with sucrose
Method: Production and purification of AS variants were performed as previously described (ref. 45). […] The enzymes were desalted by size exclusion chromatography using P6DG columns (GE Healthcare Biosciences) at +4° C. and stored in elution buffer (50 mM Tris-HCl, pH 7.0, 150 mM NaCl) at −80° C. The protein content was determined by micro-Bradford method, using bovine serum albumin as standard (ref. 56).
All assays were performed at 30° C. in 50 mM Tris buffer, pH=7.0. For the acceptor reactions, F290D, F290K and ASNPwt (1G5A) were tested on α-D-GlcpNAc-OAll.
Enzyme assays were carried out in a total volume of 2 mL containing pure enzyme (0.115 mg and 0.106 mg when using ASNPwt and F290K, respectively). Catalytic efficiency (Eff=kcat/KM) of ASNPwt and F290K variant was determined with both sucrose (D=Donor) and α-D-GlcpNAc-OAll (A=Acceptor) as variable substrates. […] For each experiment, the reaction velocity corresponding to the acceptor glucosylation was determined by the formation of α-D-Glcp-(1→4)-α-D-GlcpNAc-OAll (called Vi(Dp2)), corresponding to the kinetics of the reaction of interest.
Initial velocities were fitted to the Michaelis-Menten equation using Sigma-Plot. As saturation was not achieved with the mutant, efficiency was calculated by linear regression analysis of the velocity versus substrate concentration plot. […]

[6] = test system: Neisseria polysaccharea amylosucrase 1G5A, wild type (wtAS, ASNPwt), SEQ ID NO: 13; settings: sucrose donor, data from ref. 83; cited from earlier work
[7] = test system: OC[C@H]1O[C@@](CO)(O[C@H]2O[C@H](CO)[C@@H](O)[C@H](O)[C@H]2O)[C@@H](O)[C@@H]1O; experiment: Kinetic parameters towards sucrose donor, double mutant A289P-F290L; type: biochemical, Neisseria polysaccharea; settings: other: sucrose donor (0-500 mM), Eadie-Hofstee plot, 30° C., pH 7.0
Method: as §1, §2, §3

[8] = test system: OC[C@H]1O[C@@](CO)(O[C@H]2O[C@H](CO)[C@@H](O)[C@H](O)[C@H]2O)[C@@H](O)[C@@H]1O; experiment: Kinetic parameters towards sucrose donor, double mutant A289P-F290C; type: biochemical, Neisseria polysaccharea; settings: other: sucrose donor (0-500 mM), Eadie-Hofstee plot, 30° C., pH 7.0
Method: as §1, §2, §3

Neisseria polysaccharea amylosucrase 1G5A (parent SEQ ID NO: 13) variant A289P-F290I (Neisseria polysaccharea; A297P/F298I/G545D)
Km [1]: 17.2 mM

OC[C@H]1O[C@@](CO)(O[C@H]2O[C@H](CO)[C@@H](O)[C@H](O)[C@H]2O)[C@@H](O)[C@@H]1O [sucrose]
kcat [2]: 2.1 s⁻¹
kcat [3]: 1.1 s⁻¹
kcat [4]: 2.8 s⁻¹
affinity for sucrose [5]: poor affinity for sucrose
Km [6]: 50.2 mM
kcat [6]: 1.3 s⁻¹

Neisseria polysaccharea amylosucrase 1G5A (parent SEQ ID NO: 13) variant A289P-F290L (Neisseria polysaccharea; A297P/F298L/G545D)
Km [7]: 10.1 mM

Neisseria polysaccharea amylosucrase 1G5A (parent SEQ ID NO: 13) variant A289P-F290C (Neisseria polysaccharea; A297P/F298C/G545D)
Km [8]: 18.9 mM
